Results published in US11213590B2, “SSTR-targeted conjugates and particles and formulations thereof” (priority 2016, dated 2022).

Assays:
SSTR3 = SSTR3 (Homo sapiens, UniProt P32745); assay: Affinity profile (half-maximal inhibitory concentration), SSTR3; format: binding
Excerpt: (§1) DOTATE, also known as DOTA-TATE or DOTA-octreotate, comprises an amide of the acid DOTA, which connects a radionuclide and (Tyr3)-octreotate, a derivative of octreotide. DOTATOC, also known as edotreotide, SMT487, or (DOTA^0-Phe^1-Tyr^3)octreotide, is also an octreotide derivative which can be bound to radionuclides for diagnosis and treatment.

[1] = Buffer screening for solution stability; format: physicochemical; settings: acetate buffer versus citrate and phosphate buffers; pH range of 4.0 to 4.8
Excerpt: Conjugate 57 is a free flowing powder. The formulation development of Conjugate 57 was accomplished by screening conditions that would provide stability and tonicity to the drug product solution. […] The buffer is formed by a combination of sodium acetate and acetic acid. In summary, acetate buffer, a commonly used parenteral buffer, is used to dissolve Conjugate 57 and ensure stability at a pH range of 4.0 to 4.8.

HCC-33 = assay: Inhibition of proliferation, CellTiter-Glo, HCC-33; format: cell-based, human
Procedure: The purpose of this study was to determine the receptor-dependent inhibition of proliferation in vitro by the somatostatin targeting conjugate Conjugate 57 and determine the sensitivity to DM1 in the human SSTR2 expressing cancer cell lines: NCI-H69, NCI-H82, NCI-H727 and HCC-33. Cells were incubated with Conjugate 57 for 6 hours, in the presence or absence of an excess of octreotide, a somatostatin analogue. A three-fold serial dilution of Conjugate 57 was used for a total of ten concentration points. After treatment, cells were washed, incubated for an additional period of time, either 72 or 96 hours and proliferation was measured using the CellTiter-Glo® Luminescent Cell Viability Assay. The IC50 of Conjugate 57 was used to determine the inhibiting activity in proliferation assays. To determine DM1 sensitivity a similar method to the Conjugate 57 assay was employed with the additional incubation time points of 30 minutes, 1, 2, and 4 hours and the exclusion of the pre-treatment with octreotide. DM1 effect from the most to least sensitive cell line was determined to be: NCI-H69>HCC-33>NCI-H82>NCI-H727 (Table 5B). […] The addition of excess octreotide (100 μM) competes with Conjugate 57 for binding to the SSTR2 receptor. […] In the NCI-H69 experiments, pre-incubation with an excess of octreotide modestly diminished the activity of Conjugate 57 by 1.6 and 2.4 fold, depending on the assay conditions. In the HCC-33 cell line, activity of Conjugate 57 was 3.2 (±1.4) times higher when dosed alone, compared to when the cells were pre-incubated with octreotide. The small but measureable changes in Conjugate 57 activity in the presence of excess octreotide seen in the NCI-H69 and HCC-33 cell lines supports the receptor dependence of the Conjugate 57 antiproliferative effect seen in vitro. In summary, although all the cell lines tested in these experiments express the SSTR2 protein, they have different levels of sensitivity to the Conjugate 57 conjugate of which the DM1 sensitivity may be a contributing factor.

SSTR4 = SSTR4 (Homo sapiens, UniProt P31391); assay: Affinity profile (half-maximal inhibitory concentration), SSTR4; format: binding
Sequence of SSTR4 (P31391 whole entry): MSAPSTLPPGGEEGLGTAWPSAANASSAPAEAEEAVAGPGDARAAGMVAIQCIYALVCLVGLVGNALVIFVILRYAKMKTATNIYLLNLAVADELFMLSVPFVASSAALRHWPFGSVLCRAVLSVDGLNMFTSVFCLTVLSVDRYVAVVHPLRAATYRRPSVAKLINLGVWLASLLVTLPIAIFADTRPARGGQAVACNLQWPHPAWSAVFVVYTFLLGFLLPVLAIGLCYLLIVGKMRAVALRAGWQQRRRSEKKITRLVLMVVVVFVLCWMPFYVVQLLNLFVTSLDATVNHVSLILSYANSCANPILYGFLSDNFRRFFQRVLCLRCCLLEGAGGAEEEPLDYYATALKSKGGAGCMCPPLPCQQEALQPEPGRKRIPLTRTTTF
Excerpt: as §1

[2] = Pharmacokinetics in patients; format: in vivo; settings: human, venous blood, intravenous; in a patient
Procedure: For C1D1 and C3D1, venous blood samples (4-6 ml) for determination of Conjugate 57, the somatostatin analog peptide component of Conjugate 57 (BT-979), and DM1 (total, unconjugated, and free sulfhydryl) are taken before the start of the infusion, at 0.5 hours (±1 minute) after the start of study drug infusion; precisely at the end of infusion; and 1.5 hours (±5 minutes), 2 hours (±5 minutes), 4 hours (±5 minutes), 6 hours (±5 minutes), 8 hours (±5 minutes), and 10 hours (±5 minutes) after the start of study drug infusion. If the 10 hour time point requires an inpatient admission at the center, the 10 hour time point is not collected. The date and time of collection of each sample are recorded.

SSTR1 = SSTR1 (Homo sapiens, UniProt P30872); assay: Affinity profile (half-maximal inhibitory concentration), SSTR1; format: binding
Sequence of SSTR1 (P30872 whole entry): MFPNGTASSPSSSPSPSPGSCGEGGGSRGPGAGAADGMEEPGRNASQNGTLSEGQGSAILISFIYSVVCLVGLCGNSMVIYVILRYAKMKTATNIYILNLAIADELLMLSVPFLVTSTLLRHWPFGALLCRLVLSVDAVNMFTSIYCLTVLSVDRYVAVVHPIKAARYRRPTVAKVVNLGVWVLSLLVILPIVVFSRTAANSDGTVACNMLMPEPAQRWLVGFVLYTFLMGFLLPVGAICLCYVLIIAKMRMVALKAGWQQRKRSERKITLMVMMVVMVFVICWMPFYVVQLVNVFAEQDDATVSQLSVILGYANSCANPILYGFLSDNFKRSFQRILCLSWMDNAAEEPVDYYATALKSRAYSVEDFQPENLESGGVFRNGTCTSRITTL
Excerpt: as §1

hERG = hERG (Homo sapiens, UniProt Q12809); assay: hERG ion channel inhibition, IonWorks Quattro patch clamp; format: cell-based; settings: human; all concentrations tested (0.005 μM to 10 μM); 600 seconds incubation
Sequence of hERG (Q12809 whole entry): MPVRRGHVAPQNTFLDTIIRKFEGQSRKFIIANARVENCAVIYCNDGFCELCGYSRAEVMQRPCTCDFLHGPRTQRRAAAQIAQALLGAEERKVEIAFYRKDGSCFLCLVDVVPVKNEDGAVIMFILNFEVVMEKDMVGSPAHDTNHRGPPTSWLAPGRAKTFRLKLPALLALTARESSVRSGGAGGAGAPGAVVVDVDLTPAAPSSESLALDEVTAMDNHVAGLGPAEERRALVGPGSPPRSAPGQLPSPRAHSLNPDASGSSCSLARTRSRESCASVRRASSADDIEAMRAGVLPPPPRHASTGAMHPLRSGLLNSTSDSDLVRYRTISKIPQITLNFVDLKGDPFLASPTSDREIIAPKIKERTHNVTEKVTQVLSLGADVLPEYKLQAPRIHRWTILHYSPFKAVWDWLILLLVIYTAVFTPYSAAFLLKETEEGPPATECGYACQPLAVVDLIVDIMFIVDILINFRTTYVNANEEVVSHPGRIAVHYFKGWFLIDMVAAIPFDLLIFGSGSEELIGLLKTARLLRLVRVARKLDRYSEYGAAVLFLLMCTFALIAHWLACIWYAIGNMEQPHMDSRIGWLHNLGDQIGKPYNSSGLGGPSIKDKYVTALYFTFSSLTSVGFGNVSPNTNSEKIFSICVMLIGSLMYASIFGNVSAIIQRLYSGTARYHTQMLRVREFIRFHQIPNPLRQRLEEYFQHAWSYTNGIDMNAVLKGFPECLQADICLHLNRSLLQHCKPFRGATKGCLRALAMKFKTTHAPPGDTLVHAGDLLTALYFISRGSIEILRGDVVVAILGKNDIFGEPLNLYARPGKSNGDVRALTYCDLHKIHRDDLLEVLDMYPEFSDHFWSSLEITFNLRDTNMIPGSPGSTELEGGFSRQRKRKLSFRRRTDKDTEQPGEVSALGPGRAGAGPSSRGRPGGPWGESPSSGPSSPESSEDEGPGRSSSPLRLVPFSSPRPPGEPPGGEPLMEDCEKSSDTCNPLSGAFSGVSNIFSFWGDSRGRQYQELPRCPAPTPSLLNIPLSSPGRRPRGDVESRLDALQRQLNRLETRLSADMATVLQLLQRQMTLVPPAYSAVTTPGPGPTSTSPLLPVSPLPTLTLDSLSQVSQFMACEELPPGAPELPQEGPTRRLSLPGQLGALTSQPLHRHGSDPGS
Procedure: (§2) The purpose of this study was to evaluate the potential of Conjugate 57 to prolong the QT interval via modulation of the ion channel, human Ether-á-go-go Related Gene (hERG). The potential inhibition of the ion channel activity by Conjugate 57 was tested using an IonWorks Quattro electrophysiological platform, which is an automated high-throughput patch clamp system. Conjugate 57 was tested at eight different concentrations, starting at a high concentration of 10 μM and a low concentration of 0.005 μM with a minimum of five replicates for each concentration. hERG currents were evoked by a three pulse protocol where voltage was first stepped to +40 mV for two seconds from a holding potential of −80 mV to inactivate hERG channels. The voltage is then stepped back to −50 mV for two seconds to evoke a tail current prior to returning to the holding potential for 1 second. The voltage protocol was applied (Pre), compounds added, incubated for 600 seconds, and the voltage protocol was applied a final time (Post) on the IonWorks Quattro.

[3] = biological target: human Ether-á-go-go-Related Gene (hERG) ion channel (Homo sapiens, UniProt Q12809); assay: as above; format: cell-based; settings: IonWorks Quattro; up to 10 μM
Sequence of human Ether-á-go-go-Related Gene (hERG) ion channel (Q12809 whole entry): as above
Procedure: as §2

NCI-H69 xenograft = assay: NCI-H69 lung xenograft efficacy, formulations and schedules; format: in vivo, mice; settings: for MTV (Mean Tumor Volume): total dose 2.0 mg/kg; for MTV (Mean Tumor Volume) / mice with complete tumor regression: Day 21
Procedure: A further NCI-H69 study design included Conjugate 57 dosed iv at 1.0 mg/kg formulated in propylene glycol (PG), 1.0 mg/kg formulated in Solutol HS15, 0.5 mg/kg formulated in Solutol HS15 dosed twice per week, and 0.33 mg/kg formulated in Solutol HS15 dosed three times per week. A comparator group was dosed with SOC cisplatin dosed iv at 5.0 mg/kg once per week/etoposide dosed ip at 8.0 mg/kg three times per week over two weeks. A negative control vehicle was dosed with the Solutol HS 15 vehicle. All groups contained 10 animals.

SSTR5 = SSTR5 (Homo sapiens, UniProt P35346); assay: Affinity profile (half-maximal inhibitory concentration), SSTR5; format: binding
Sequence of SSTR5 (P35346 whole entry): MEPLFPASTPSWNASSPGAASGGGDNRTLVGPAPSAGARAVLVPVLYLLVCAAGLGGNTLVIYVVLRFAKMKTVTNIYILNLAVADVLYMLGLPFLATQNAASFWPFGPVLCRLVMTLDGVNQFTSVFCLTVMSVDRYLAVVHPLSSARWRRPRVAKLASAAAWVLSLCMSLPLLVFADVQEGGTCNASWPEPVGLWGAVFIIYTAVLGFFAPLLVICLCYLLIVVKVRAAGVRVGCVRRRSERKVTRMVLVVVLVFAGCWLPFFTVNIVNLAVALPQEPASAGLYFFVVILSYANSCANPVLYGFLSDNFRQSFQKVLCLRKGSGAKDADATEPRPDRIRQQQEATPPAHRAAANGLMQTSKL
Excerpt: as §1

Sequence of SSTR3 (P32745 whole entry): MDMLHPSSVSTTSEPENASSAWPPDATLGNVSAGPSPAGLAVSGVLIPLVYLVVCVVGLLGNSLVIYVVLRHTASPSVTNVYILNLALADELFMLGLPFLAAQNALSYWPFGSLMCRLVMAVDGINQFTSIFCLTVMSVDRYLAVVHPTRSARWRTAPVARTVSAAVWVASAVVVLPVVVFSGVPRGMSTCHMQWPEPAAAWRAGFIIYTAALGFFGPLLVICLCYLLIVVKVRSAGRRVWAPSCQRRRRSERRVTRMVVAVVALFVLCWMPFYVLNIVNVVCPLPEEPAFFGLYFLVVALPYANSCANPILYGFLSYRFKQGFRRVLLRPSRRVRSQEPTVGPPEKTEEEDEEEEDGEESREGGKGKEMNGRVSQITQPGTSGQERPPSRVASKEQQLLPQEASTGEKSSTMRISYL

COc1cc2cc(c1Cl)N(C)C(=O)C[C@H](OC(=O)[C@H](C)N(C)C(=O)CCSSC[C@H](NC(=O)[C@@H]1CSSC[C@H](NC(=O)[C@H](N)Cc3ccccc3)C(=O)N[C@@H](Cc3ccc(O)cc3)C(=O)N[C@H](Cc3c[nH]c4ccccc34)C(=O)N[C@@H](CCCCN)C(=O)N[C@@H]([C@@H](C)O)C(=O)N1)C(N)=O)[C@]1(C)O[C@H]1[C@H](C)[C@@H]1C[C@@](O)(NC(=O)O1)[C@H](OC)/C=C/C=C(\C)C2 [Conjugate 57]
IC50 (SSTR3): 58 nM
solution stability by buffer [1]: most stability
activity dosed alone compared to pre-incubation with octreotide (HCC-33): 3.2 (±1.4) times higher
IC50 (HCC-33; 5,000 cells/well, assay duration 72 h (repeat experiments), read-out: Inhibition of Proliferation IC50 Without Octreotide): 230 nM
IC50 (SSTR4): > 1000 nM
half-life [2]: ~1.8 h
IC50 (SSTR1): 380 nM
inhibition at 600 seconds (hERG): < 20%
hERG ion channel inhibition (in words) [3]: did not inhibit
MTV (Mean Tumor Volume) (NCI-H69 xenograft; 0.33 mg/kg iv in Solutol HS15, 3 doses per week): 330 mm3
mice with complete tumor regression (NCI-H69 xenograft; 0.33 mg/kg three times per week in Solutol HS15): no mice having complete tumor regressions
MTV (Mean Tumor Volume) (NCI-H69 xenograft; 0.5 mg/kg iv in Solutol HS15, 2 doses per week): 105 mm3
mice with complete tumor regression (NCI-H69 xenograft; 0.5 mg/kg twice weekly in Solutol HS15, 10 animals): 1/10
mice with complete tumor regression (NCI-H69 xenograft; 1.0 mg/kg in PG, 10 animals): 2/10
mice with complete tumor regression (NCI-H69 xenograft; 1.0 mg/kg in Solutol HS15, 10 animals): 3/10
MTV (Mean Tumor Volume) (NCI-H69 xenograft; 1.0 mg/kg iv in PG, 1 dose per week): 178 mm3
MTV (Mean Tumor Volume) (NCI-H69 xenograft; 1.0 mg/kg iv in Solutol HS15, 1 dose per week): 55 mm3
adverse effects with health observations (NCI-H69 xenograft; NCI-H69 xenograft): No adverse effects
weight loss (NCI-H69 xenograft; NCI-H69 xenograft, all Conjugate 57 groups): No weight loss
IC50 (SSTR5): 24 nM
